In the supplement of paper PMC8882468:

Experiments:
Assay in all cases: CTG-3D luminescence at 96 h relative to day-0 seeding control (ratio to day 0); higher = more growth / less cytotoxicity
HCI-001 = test system: HCI-001 (organoid from a triple-negative breast cancer xenograft)
Protocol: (§1)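 PDxO 3D drug screen (set 2), 8-point dose, 96 h; CTG-3D luminescence normalised to day-0 seeding control (mean of 4 wells each).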

HCI-002 = test system: HCI-002 (organoid from a triple-negative breast cancer xenograft)
Protocol: as §1

HCI-005.E2 = test system: HCI-005.E2 (organoid from a breast cancer xenograft with a HER2-positive history)
Protocol: as §1

HCI-008 = test system: HCI-008 (organoid from a HER2-enriched breast cancer xenograft)
Protocol: as §1

HCI-016 = test system: HCI-016 (organoid from a triple-negative breast cancer xenograft)
Protocol: as §1

HCI-019 = test system: HCI-019 (organoid from a triple-negative breast cancer xenograft)
Protocol: as §1

CC/C(=C(\c1ccc(O)cc1)c1ccc(OCCN(C)C)cc1)c1ccccc1 [4-hydroxytamoxifen]
CTG-3D luminescence at 96 h
Conditions	12.5 pM	0.00025 µM	0.005 µM	0.1 µM	1 µM	10 µM	100 µM	625 fM
HCI-001, days in culture: 365	2.24	2.14	2.59	3.06	2.55	1.86	0.0145	1.46
HCI-001, days in culture: 397	1.66	1.84	2.19	2.62	1.93	1.21	0.00832	1.25
HCI-001, days in culture: 401	1.75	1.39	1.52	1.38	1.26	1.52	0.00247	1.47
HCI-002, days in culture: 127	2.42	2.73	2.8	2.99	2.6	2.18	0.0155	2.75
HCI-002, days in culture: 155	4.99	5.16	5.23	5.86	4.71	4.14	0.0228	4.09
HCI-002, days in culture: 168	3.07	2.97	4.33	2.96	3.6	0.901	0.00411	4.11
HCI-008, days in culture: 325	1.16	3.13	1.6	3.49	3.48	2.12	0.0259	1.52
HCI-008, days in culture: 340	1.38	1.51	1.18	1.09	1.46	–	0.00621	1.32
HCI-008, days in culture: 354	1.2	1.03	2.12	1.34	1.26	1.3	0.00452	0.999
HCI-008, days in culture: 382	1.86	1.74	1.28	1.63	0.792	1.56	0.0061	1.74
HCI-016, days in culture: 305	2.77	4.59	2.65	4.18	2.47	1.67	0.0261	4.99
HCI-016, days in culture: 327	0.944	0.968	2.39	2.26	1.5	1.58	0.0115	1.27
HCI-016, days in culture: 341	2.5	1.22	2.22	1.54	1.41	1.48	0.00227	2.1
HCI-016, days in culture: 397	1.82	2.24	1.56	1.83	1.91	2.17	0.0134	2
HCI-019, days in culture: 173	1.97	1.2	1.04	1.81	1.85	0.914	0.0117	1.34
HCI-019, days in culture: 194	1.24	0.815	2.23	0.96	2.13	0.944	0.00421	2.45
HCI-019, days in culture: 215	2.34	1.56	1.23	1.28	1.14	0.473	0.00476	1.5

HCI-005.E2
Conditions	CTG-3D luminescence at 96 h
12.5 pM	1.68
0.00025 µM	1.99
0.005 µM	2.22
0.1 µM	2.35
1 µM	2.26
10 µM	2.01
100 µM	0.0139
625 fM	2.45
